Experimental data as given in ChEMBL document CHEMBL4507290 (2021).

Assays:
[1] = target: RAC-beta serine/threonine-protein kinase (Homo sapiens) (UniProt P31751); conditions: Compound concentration 1000.0 nM
[2] = target: BMP-2-inducible protein kinase (Homo sapiens) (UniProt Q9NSY1); conditions: Compound concentration 1000.0 nM
[3] = target: Bone morphogenetic protein receptor type-1A (Homo sapiens) (UniProt P36894); conditions: Compound concentration 1000.0 nM
[4] = target: Bone morphogenetic protein receptor type-1B (Homo sapiens) (UniProt O00238); conditions: Compound concentration 1000.0 nM
[5] = target: Calcium/calmodulin-dependent protein kinase type 1B (Homo sapiens) (UniProt Q6P2M8); conditions: Compound concentration 1000.0 nM
[6] = target: Calcium/calmodulin-dependent protein kinase type II subunit gamma (Homo sapiens) (UniProt Q13555); conditions: Compound concentration 1000.0 nM
[7] = target: Cyclin-dependent kinase 3 (Homo sapiens) (UniProt Q00526); conditions: Compound concentration 1000.0 nM
[8] = target: Dual specificity protein kinase CLK2 (Homo sapiens) (UniProt P49760); conditions: Compound concentration 1000.0 nM
[9] = target: Tyrosine-protein kinase CSK (Homo sapiens) (UniProt P41240); conditions: Compound concentration 1000.0 nM
[10] = target: Serine/threonine-protein kinase DCLK1 (Homo sapiens) (UniProt O15075); conditions: Compound concentration 1000.0 nM
[11] = target: Epithelial discoidin domain-containing receptor 1 (Homo sapiens) (UniProt Q08345); conditions: Compound concentration 1000.0 nM
[12] = target: Dual specificity tyrosine-phosphorylation-regulated kinase 1A (Homo sapiens) (UniProt Q13627); conditions: Compound concentration 1000.0 nM
[13] = system: Epidermal growth factor receptor (Homo sapiens), P00533 [UNDEFINED MUTATION]; conditions: Compound concentration 1000.0 nM
[14] = target: Ephrin type-A receptor 8 (Homo sapiens) (UniProt P29322); conditions: Compound concentration 1000.0 nM
[15] = target: Receptor tyrosine-protein kinase erbB-4 (Homo sapiens) (UniProt Q15303); conditions: Compound concentration 1000.0 nM
[16] = target: Serine/threonine-protein kinase/endoribonuclease IRE1 (Homo sapiens) (UniProt O75460); conditions: Compound concentration 1000.0 nM
[17] = system: Receptor-type tyrosine-protein kinase FLT3 (Homo sapiens), P36888 [UNDEFINED MUTATION]; conditions: Compound concentration 1000.0 nM
[18] = system: Receptor-type tyrosine-protein kinase FLT3 (Homo sapiens), P36888 [K663Q]; conditions: Compound concentration 1000.0 nM
[19] = target: Interleukin-1 receptor-associated kinase 1 (Homo sapiens) (UniProt P51617); conditions: Compound concentration 1000.0 nM
[20] = target: Tyrosine-protein kinase JAK1 (Homo sapiens) (UniProt P23458); conditions: Compound concentration 1000.0 nM
[21] = target: Mitogen-activated protein kinase 10 (Homo sapiens) (UniProt P53779); conditions: Compound concentration 1000.0 nM
[22] = target: Serine/threonine-protein kinase 38-like (Homo sapiens) (UniProt Q9Y2H1); conditions: Compound concentration 1000.0 nM
[23] = target: Serine/threonine-protein kinase Nek2 (Homo sapiens) (UniProt P51955); conditions: Compound concentration 1000.0 nM
[24] = target: Serine/threonine-protein kinase PAK 3 (Homo sapiens) (UniProt O75914); conditions: Compound concentration 1000.0 nM
[25] = target: Cyclin-dependent kinase 16 (Homo sapiens) (UniProt Q00536); conditions: Compound concentration 1000.0 nM
[26] = target: Cyclin-dependent kinase 2 homolog (Plasmodium falciparum (isolate 3D7)) (UniProt P61075); conditions: Compound concentration 1000.0 nM
[27] = target: Phosphatidylinositol 4,5-bisphosphate 3-kinase catalytic subunit alpha isoform (Homo sapiens) (UniProt P42336); conditions: Compound concentration 1000.0 nM
[28] = target: Serine/threonine-protein kinase pim-1 (Homo sapiens) (UniProt P11309); conditions: Compound concentration 1000.0 nM
[29] = target: Serine/threonine-protein kinase PLK1 (Homo sapiens) (UniProt P53350); conditions: Compound concentration 1000.0 nM
[30] = target: Serine/threonine-protein kinase D3 (Homo sapiens) (UniProt O94806); conditions: Compound concentration 1000.0 nM
[31] = target: Interferon-induced, double-stranded RNA-activated protein kinase (Homo sapiens) (UniProt P19525); conditions: Compound concentration 1000.0 nM
[32] = target: RAF proto-oncogene serine/threonine-protein kinase (Homo sapiens) (UniProt P04049); conditions: Compound concentration 1000.0 nM
[33] = target: Uncharacterized serine/threonine-protein kinase SBK3 (Homo sapiens) (UniProt P0C264); conditions: Compound concentration 1000.0 nM
[34] = target: Serine/threonine-protein kinase Sgk2 (Homo sapiens) (UniProt Q9HBY8); conditions: Compound concentration 1000.0 nM
[35] = target: STE20-like serine/threonine-protein kinase (Homo sapiens) (UniProt Q9H2G2); conditions: Compound concentration 1000.0 nM
[36] = target: Proto-oncogene tyrosine-protein kinase Src (Homo sapiens) (UniProt P12931); conditions: Compound concentration 1000.0 nM
[37] = target: Serine/threonine-protein kinase TBK1 (Homo sapiens) (UniProt Q9UHD2); conditions: Compound concentration 1000.0 nM
[38] = target: TGF-beta receptor type-1 (Homo sapiens) (UniProt P36897); conditions: Compound concentration 1000.0 nM
[39] = target: Serine/threonine-protein kinase tousled-like 1 (Homo sapiens) (UniProt Q9UKI8); conditions: Compound concentration 1000.0 nM
[40] = target: Non-receptor tyrosine-protein kinase TNK1 (Homo sapiens) (UniProt Q13470); conditions: Compound concentration 1000.0 nM
[41] = target: Serine/threonine-protein kinase 32B (Homo sapiens) (UniProt Q9NY57); conditions: Compound concentration 1000.0 nM
[42] = target: Serine/threonine-protein kinase 25 (Homo sapiens) (UniProt O00506); conditions: Compound concentration 1000.0 nM
[43] = target: D(4) dopamine receptor (Homo sapiens) (UniProt P21917); conditions: Compound concentration 10.0 uM
[44] = target: Muscarinic acetylcholine receptor M4 (Homo sapiens) (UniProt P08173); conditions: Compound concentration 10.0 uM
Chain of Muscarinic acetylcholine receptor M4 (Homo sapiens) (P08173 whole entry): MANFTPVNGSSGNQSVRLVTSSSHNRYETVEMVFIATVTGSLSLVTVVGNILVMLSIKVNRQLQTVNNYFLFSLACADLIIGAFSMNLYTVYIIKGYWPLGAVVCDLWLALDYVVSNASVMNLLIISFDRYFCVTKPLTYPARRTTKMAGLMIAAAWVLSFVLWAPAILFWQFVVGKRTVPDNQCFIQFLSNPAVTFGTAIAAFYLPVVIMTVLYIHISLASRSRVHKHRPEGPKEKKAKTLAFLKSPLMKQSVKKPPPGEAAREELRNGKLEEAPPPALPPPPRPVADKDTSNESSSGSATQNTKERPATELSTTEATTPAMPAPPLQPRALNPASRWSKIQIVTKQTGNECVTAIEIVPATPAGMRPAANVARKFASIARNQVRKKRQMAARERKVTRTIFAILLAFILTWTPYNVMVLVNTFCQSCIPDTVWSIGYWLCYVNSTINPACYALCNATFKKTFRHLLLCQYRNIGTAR

Chain of Epithelial discoidin domain-containing receptor 1 (Homo sapiens) (Q08345 whole entry, the tested form may be a part): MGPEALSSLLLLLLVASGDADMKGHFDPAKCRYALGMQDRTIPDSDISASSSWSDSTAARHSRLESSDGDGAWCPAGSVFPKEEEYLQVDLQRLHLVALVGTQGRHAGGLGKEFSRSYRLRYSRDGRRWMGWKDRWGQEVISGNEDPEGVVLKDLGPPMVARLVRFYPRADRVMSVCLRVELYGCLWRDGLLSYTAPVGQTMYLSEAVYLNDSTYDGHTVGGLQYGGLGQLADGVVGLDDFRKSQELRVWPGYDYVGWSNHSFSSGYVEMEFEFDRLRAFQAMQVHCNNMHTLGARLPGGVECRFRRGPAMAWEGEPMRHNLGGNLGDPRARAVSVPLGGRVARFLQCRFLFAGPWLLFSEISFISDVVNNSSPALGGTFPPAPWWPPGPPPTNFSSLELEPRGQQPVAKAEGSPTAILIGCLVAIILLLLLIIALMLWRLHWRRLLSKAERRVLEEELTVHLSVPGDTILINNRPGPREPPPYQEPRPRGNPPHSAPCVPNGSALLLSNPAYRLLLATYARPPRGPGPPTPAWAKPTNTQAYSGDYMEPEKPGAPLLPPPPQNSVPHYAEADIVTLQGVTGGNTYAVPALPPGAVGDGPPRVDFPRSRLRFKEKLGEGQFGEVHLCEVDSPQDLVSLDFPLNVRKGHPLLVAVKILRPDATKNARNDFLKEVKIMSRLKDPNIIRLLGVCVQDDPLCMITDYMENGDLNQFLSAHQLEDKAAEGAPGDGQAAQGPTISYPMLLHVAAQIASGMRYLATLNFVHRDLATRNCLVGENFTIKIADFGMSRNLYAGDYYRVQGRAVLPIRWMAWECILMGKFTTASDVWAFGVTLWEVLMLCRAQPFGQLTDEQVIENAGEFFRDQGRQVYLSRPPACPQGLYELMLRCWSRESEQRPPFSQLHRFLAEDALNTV
Chain of TGF-beta receptor type-1 (Homo sapiens) (P36897 whole entry): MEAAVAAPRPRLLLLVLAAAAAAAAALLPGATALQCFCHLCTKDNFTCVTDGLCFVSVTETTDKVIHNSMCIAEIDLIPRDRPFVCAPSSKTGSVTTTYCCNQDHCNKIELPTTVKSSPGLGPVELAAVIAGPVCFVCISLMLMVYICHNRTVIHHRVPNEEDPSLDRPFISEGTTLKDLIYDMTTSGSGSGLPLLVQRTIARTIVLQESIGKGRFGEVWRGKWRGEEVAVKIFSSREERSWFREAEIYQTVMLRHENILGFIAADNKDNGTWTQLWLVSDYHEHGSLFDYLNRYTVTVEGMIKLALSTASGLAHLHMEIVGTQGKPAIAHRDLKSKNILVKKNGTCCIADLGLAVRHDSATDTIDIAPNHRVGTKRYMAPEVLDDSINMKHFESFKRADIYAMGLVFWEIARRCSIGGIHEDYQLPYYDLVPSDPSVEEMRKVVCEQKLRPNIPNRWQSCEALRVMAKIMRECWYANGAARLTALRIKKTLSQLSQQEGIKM
Chain of Ephrin type-A receptor 8 (Homo sapiens) (P29322 whole entry): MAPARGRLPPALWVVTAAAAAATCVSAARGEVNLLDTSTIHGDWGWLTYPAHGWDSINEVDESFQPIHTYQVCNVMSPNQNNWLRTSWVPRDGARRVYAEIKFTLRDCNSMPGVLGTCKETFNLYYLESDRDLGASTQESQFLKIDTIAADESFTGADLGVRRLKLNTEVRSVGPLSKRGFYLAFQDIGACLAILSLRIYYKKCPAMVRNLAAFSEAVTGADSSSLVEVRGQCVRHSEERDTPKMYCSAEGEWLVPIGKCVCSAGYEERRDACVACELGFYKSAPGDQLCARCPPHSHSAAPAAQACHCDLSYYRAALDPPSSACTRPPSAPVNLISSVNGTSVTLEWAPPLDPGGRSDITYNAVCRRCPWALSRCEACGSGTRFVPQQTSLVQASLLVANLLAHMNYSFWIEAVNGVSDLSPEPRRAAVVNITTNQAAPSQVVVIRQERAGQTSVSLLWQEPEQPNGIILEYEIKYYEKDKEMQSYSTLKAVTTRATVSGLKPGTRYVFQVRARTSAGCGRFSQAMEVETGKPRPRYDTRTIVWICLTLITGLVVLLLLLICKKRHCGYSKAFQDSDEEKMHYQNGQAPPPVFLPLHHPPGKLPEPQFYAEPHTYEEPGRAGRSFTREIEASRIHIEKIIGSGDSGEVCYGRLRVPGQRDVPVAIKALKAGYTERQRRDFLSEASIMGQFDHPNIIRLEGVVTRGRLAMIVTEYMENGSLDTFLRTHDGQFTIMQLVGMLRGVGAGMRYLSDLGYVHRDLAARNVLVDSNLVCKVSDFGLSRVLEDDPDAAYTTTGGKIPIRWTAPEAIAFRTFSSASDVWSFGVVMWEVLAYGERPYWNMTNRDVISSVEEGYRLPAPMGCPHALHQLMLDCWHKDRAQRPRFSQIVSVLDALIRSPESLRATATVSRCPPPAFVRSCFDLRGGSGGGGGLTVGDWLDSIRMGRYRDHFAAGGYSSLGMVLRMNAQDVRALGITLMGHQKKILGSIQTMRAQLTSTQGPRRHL
Chain of Serine/threonine-protein kinase D3 (Homo sapiens) (O94806 whole entry): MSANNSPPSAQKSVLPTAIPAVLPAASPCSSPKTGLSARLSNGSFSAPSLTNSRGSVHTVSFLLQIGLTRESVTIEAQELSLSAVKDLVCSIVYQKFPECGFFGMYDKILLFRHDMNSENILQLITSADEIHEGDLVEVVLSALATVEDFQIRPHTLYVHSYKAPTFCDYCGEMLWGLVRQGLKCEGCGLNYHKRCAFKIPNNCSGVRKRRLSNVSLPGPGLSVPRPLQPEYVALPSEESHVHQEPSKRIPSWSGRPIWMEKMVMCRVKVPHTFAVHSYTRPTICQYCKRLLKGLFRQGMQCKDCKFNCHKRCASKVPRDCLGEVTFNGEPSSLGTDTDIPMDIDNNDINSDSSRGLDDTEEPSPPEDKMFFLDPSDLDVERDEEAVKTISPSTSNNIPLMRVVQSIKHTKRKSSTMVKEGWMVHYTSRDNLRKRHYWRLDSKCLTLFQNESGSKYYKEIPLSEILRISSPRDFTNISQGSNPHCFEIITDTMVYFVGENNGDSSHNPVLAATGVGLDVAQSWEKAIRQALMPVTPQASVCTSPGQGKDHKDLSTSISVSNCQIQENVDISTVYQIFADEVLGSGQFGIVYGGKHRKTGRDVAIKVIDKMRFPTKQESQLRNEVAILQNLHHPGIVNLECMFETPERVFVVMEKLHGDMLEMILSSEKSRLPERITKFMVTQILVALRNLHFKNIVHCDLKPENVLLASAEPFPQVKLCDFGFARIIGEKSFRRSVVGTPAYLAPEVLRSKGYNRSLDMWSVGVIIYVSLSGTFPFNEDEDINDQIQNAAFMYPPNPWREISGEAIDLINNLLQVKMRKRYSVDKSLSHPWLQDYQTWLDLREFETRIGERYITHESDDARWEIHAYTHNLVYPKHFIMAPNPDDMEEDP
Chain of Cyclin-dependent kinase 2 homolog (Plasmodium falciparum (isolate 3D7)) (P61075 whole entry, canonical isoform): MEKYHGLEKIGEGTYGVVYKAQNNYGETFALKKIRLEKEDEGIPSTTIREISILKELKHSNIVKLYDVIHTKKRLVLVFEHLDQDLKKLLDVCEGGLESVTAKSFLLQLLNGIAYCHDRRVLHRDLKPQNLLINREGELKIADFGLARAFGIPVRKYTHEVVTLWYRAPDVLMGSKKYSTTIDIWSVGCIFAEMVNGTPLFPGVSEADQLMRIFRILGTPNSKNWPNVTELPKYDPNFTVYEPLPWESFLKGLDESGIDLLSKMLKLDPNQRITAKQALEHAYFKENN
Chain of Serine/threonine-protein kinase tousled-like 1 (Homo sapiens) (Q9UKI8 whole entry): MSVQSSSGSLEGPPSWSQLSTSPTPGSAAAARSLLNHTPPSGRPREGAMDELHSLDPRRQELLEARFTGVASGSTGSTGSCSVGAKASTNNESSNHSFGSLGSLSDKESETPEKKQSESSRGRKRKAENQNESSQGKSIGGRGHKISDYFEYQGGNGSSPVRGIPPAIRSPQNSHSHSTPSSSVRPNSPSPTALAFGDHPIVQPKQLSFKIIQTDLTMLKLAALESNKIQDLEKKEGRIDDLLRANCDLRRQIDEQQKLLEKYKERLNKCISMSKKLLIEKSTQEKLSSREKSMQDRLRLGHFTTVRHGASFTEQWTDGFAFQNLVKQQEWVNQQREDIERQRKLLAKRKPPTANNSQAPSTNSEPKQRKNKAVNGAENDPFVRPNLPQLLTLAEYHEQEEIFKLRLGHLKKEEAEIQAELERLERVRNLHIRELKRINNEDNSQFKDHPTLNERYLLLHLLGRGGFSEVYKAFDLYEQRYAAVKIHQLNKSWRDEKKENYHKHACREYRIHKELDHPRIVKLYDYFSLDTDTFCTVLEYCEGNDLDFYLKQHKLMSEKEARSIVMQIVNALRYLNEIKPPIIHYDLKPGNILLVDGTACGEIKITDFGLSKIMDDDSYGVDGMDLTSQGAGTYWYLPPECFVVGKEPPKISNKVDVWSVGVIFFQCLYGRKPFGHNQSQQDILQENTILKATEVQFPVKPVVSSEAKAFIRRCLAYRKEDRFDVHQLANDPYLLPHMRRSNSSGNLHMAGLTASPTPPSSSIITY

Q: Which results are given for `CN([C@@H]1CCc2c(CC(=O)O)c3cc(S(C)(=O)=O)ccc3n2C1)S(=O)(=O)c1ccc(F)cc1`?
A: residual activity [1]: 92%; residual activity [2]: 98%; residual activity [3]: 85%; residual activity [4]: 100%; residual activity [5]: 90%; residual activity [6]: 100%; residual activity [7]: 100%; residual activity [8]: 100%; residual activity [9]: 99%; residual activity [10]: 79%; residual activity [11]: 100%; residual activity [12]: 81%; residual activity [13]: 100%; residual activity [14]: 98%; residual activity [15]: 100%; residual activity [16]: 100%; residual activity [17]: 98%; residual activity [18]: 100%; residual activity [19]: 91%; residual activity [20]: 94%; residual activity [21]: 100%; residual activity [22]: 88%; residual activity [23]: 100%; residual activity [24]: 79%; residual activity [25]: 84%; residual activity [26]: 100%; residual activity [27]: 100%; residual activity [28]: 100%; residual activity [29]: 93%; residual activity [30]: 100%; residual activity [31]: 100%; residual activity [32]: 100%; residual activity [33]: 49%; residual activity [34]: 100%; residual activity [35]: 100%; residual activity [36]: 96%; residual activity [37]: 97%; residual activity [38]: 100%; residual activity [39]: 100%; residual activity [40]: 91%; residual activity [41]: 100%; residual activity [42]: 100%; inhibition [43]: 2.8%; inhibition [44]: -1.13%

Q: With `CN([C@@H]1CCc2c(CC(=O)O)c3ccccc3n2C1)S(=O)(=O)c1ccc(F)cc1` [MK-7246] as the compound, how does the residual activity [1] read?
A: Its residual activity is 95%.

Q: And the residual activity [2]?
A: Its residual activity is 100%.

Q: And the residual activity [3]?
A: The residual activity was 100%.

Q: What about the residual activity [4] of the same compound?
A: Its residual activity is 100%.

Q: And the residual activity [5]?
A: Its residual activity is 87%.

Q: What about the residual activity [6] of the same compound?
A: Its residual activity is 100%.

Q: And the residual activity [7]?
A: Its residual activity is 100%.

Q: What about the residual activity [8] of the same compound?
A: The residual activity was 94%.

Q: And the residual activity [9]?
A: Its residual activity is 100%.

Q: What about the residual activity [10] of the same compound?
A: The residual activity was 82%.

Q: And the residual activity [11]?
A: The residual activity was 78%.

Q: And the residual activity [12]?
A: Its residual activity is 69%.

Q: What about the residual activity [13] of the same compound?
A: Its residual activity is 100%.

Q: And the residual activity [14]?
A: Its residual activity is 100%.

Q: And the residual activity [15]?
A: Its residual activity is 100%.

Q: And the residual activity [16]?
A: Its residual activity is 94%.

Q: What about the residual activity [17] of the same compound?
A: The residual activity was 96%.

Q: And the residual activity [18]?
A: Its residual activity is 100%.

Q: What about the residual activity [19] of the same compound?
A: The residual activity was 78%.

Q: What about the residual activity [20] of the same compound?
A: The residual activity was 83%.

Q: And the residual activity [21]?
A: The residual activity was 100%.

Q: And the residual activity [22]?
A: Its residual activity is 83%.

Q: And the residual activity [23]?
A: The residual activity was 100%.

Q: And the residual activity [24]?
A: Its residual activity is 98%.

Q: What about the residual activity [25] of the same compound?
A: The residual activity was 98%.

Q: And the residual activity [26]?
A: The residual activity was 94%.

Q: And the residual activity [27]?
A: The residual activity was 100%.

Q: What about the residual activity [28] of the same compound?
A: Its residual activity is 96%.

Q: What about the residual activity [29] of the same compound?
A: Its residual activity is 98%.

Q: What about the residual activity [30] of the same compound?
A: Its residual activity is 94%.

Q: And the residual activity [31]?
A: Its residual activity is 100%.

Q: What about the residual activity [32] of the same compound?
A: The residual activity was 100%.

Q: What about the residual activity [33] of the same compound?
A: Its residual activity is 100%.

Q: What about the residual activity [34] of the same compound?
A: Its residual activity is 100%.

Q: And the residual activity [35]?
A: The residual activity was 100%.

Q: And the residual activity [36]?
A: Its residual activity is 100%.

Q: What about the residual activity [37] of the same compound?
A: The residual activity was 100%.

Q: And the residual activity [38]?
A: Its residual activity is 100%.

Q: And the residual activity [39]?
A: The residual activity was 100%.

Q: And the residual activity [40]?
A: The residual activity was 99%.

Q: What about the residual activity [41] of the same compound?
A: The residual activity was 100%.

Q: And the residual activity [42]?
A: Its residual activity is 99%.

Q: And the inhibition [43]?
A: The inhibition was 3.14%.

Q: And the inhibition [44]?
A: The inhibition was 24.4%.
